Laboratory results published in patent US10029994B2, “Isoxazole hydroxamic acid compounds as LpxC inhibitors” (priority 2014, dated 2018).
pIC50: −log10 of the molar value. Like-named read-outs stand apart in the source and are kept apart here.

Key:
E. C. ATCC 29522 = test: MIC in the presence of sub-inhibitory rifampicin (potentiation/synergy); format: cell-based, Escherichia coli; settings: +2 μg/ml rifampicin (RIF); broth microdilution, 35° C., 20 hours
Experimental: (§1) Bacterial isolates were cultivated from −70° C. frozen stocks by two consecutive overnight passages at 35° C. in ambient air on 5% blood agar (Remel, Lenexa, Kans.). Quality control strain, P. aeruginosa ATCC 27853, A. baumannii ATCC19606 and E. coli ATCC 25922 are from the American Type Culture Collection (ATCC; Rockville, Md.) and PAO1 was received from Dr. K. Poole.
(§2) Minimal Inhibitory Concentrations (MICs) were determined by the broth microdilution method in accordance with Clinical and Laboratories Institute (CLSI) guidelines (CLSI M100-S25, Performance Standards for Antimicrobial Susceptibility Testing; Twenty-fifth Informational Supplement). In brief, fresh bacterial overnight cultures were resuspended in sterile saline, adjusted to a 0.5 McFarland turbidity standard and then diluted 2000-fold in cation adjusted Mueller-Hinton Broth II (MHB; Remel BBL) to yield a final inoculum of approximately 5×10^5 colony-forming units (CFU)/mL. Two-fold serial dilutions of compounds were prepared in 100% dimethyl sulfoxide (DMSO) at 100-fold the highest final assay concentration; the resulting dilution series of compounds were diluted 1:10 with sterile water. Ten μl of the drug dilution series in 10% DMSO was transferred to microtiter wells and 90 μl of bacterial suspension was inoculated into the wells. For testing the ability of compounds to potentiate the activity of known antibiotics, the assay was modified as follows; known antibiotics were added to the bacterial inoculum at 1.1-fold the final assay concentration indicated in Table A. All inoculated microdilution trays were incubated in ambient air at 35° C. for 20 hours. Following incubation, assay plates were read in a microtiter plate reader at 600 nm and visually inspected to confirm the MIC endpoint well with the OD value. The lowest concentration of the compound that prevented visible growth was recorded as the MIC. Performance of the assay was monitored by testing ciprofloxacin against the laboratory quality control strain in accordance with guidelines of the CLSI.

A. B. ATCC 19606 [1] = test: MIC, broth microdilution (CLSI); format: cell-based, Acinetobacter baumannii; settings: for MIC: Acinetobacter baumannii, read-out: A. B. ATCC 19606 MIC
Experimental: as §1, §2

E. C. ATCC 25922 = test: MIC, broth microdilution (CLSI); format: cell-based, Escherichia coli; settings: for MIC: Escherichia coli, ATCC25922, 20 h, read-out: E. C. ATCC 25922 MIC
Experimental: as §1, §2

A. B. ATCC 19606 [2] = test: MIC in the presence of sub-inhibitory rifampicin (potentiation/synergy); format: cell-based, Acinetobacter baumannii; settings: +2 μg/ml rifampicin (RIF); broth microdilution, 35° C., 20 hours
Experimental: as §1, §2

P. A. PAO1 NB52019 = test: MIC, broth microdilution (CLSI); format: cell-based, Pseudomonas aeruginosa; settings: for MIC: Pseudomonas aeruginosa, read-out: P. A. PAO1 NB52019 MIC
Experimental: as §1, §2

P. aeruginosa LpxC = target: T1, P. aeruginosa LpxC (Pseudomonas aeruginosa, UniProt P47205); test: P. aeruginosa LpxC Inhibition Assay (LC-MS/MS); format: biochemical; settings: 1 nM P. aeruginosa LpxC, 30 min pre-incubation, 2 μM UDP-3-O-(R-3-hydroxydecanoyl)-GlcNAc, pH 7.5
T1 construct: made in house
T1 sequence (P47205 1-303): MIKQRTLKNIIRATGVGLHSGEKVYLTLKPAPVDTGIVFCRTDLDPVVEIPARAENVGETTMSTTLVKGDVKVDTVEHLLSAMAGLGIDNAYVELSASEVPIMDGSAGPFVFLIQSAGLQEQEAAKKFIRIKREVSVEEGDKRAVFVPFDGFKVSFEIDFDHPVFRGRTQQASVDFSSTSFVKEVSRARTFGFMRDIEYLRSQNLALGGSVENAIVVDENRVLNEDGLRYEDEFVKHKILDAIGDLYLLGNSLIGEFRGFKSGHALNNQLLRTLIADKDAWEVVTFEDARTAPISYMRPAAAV
From the text: P. aeruginosa LpxC Inhibition Assay
The P. aeruginosa LpxC protein is produced according to the general method of Hyland et al (Journal of Bacteriology 1997 179, 2029-2037: Cloning, expression and purification of UDP-3-O-acyl-GlcNAc deacetylase from Pseudomonas aeruginosa: a metalloamidase of the lipid A biosynthesis pathway). The LC-MS/MS method for quantitation of LpxC product was developed using an Agilent 1200 Capillary HPLC system coupled to an Applied Biosystems MDS Sciex 4000QTRAP mass spectrometer. Both instruments are controlled using the Applied Biosystems MDS Sciex Analyst software. LpxC reaction product (UDP-3-O—(R-3-hydroxyacyl)-glucosamine) was produced by hydrolysis of LpxC substrate catalyzed by P.a. LpxC and purified using reversed phase chromatography on a Phenomenex Luna C18(2) 4.6×50 mm column. An LpxC product calibration curve was generated to evaluate the sensitivity and dynamic range of the LC-MS/MS method. Briefly, compounds are pre-incubated with 1 nM P. aeruginosa LpxC for 30 min. at room temperature. Reactions are initiated by the addition of 2 μM UDP-3-O—(R-3-hydroxydecanoyl)-GlcNAc. Reactions are conducted in a 384-well plate with a total volume of 50 μL in each well containing 50 mM Sodium phosphate pH 7.5, 0.005% Trition X-100 for 20 min at room temperature. After quenching with 1.8% HOAc (5 μL of a 20% HOAc added to each well), reaction mixtures are analyzed using the LC-MS/MS method and peak areas are transformed into product concentration using a LpxC product calibration curve. Total activity (0% inhibition control) is obtained from reactions with no inhibitors and 100% inhibition control is the background using quenched samples before reaction starts. For IC50 determinations, peak areas are converted to percent inhibition in Microsoft Excel. Percent inhibition values are plotted vs. log compound concentration using XLfit. Data is fit to the four-parameter logistic equation using the non-linear regression algorithm in XLfit to return the IC50 and hill slope values.

[3] = ATCC19606, broth microdilution, 35° C., 20 hours
[4] = broth microdilution, 35° C., 20 hours
[5] = PAO1, broth microdilution, 35° C., 20 hours

SMILES | E. C. ATCC 29522 (+2 μg/ml RIF) MIC (E. C. ATCC 29522) | MIC (A. B. ATCC 19606 [1]; [3]) | MIC (E. C. ATCC 25922; [4]) | A. B. ATCC 19606 (+2 μg/ml RIF) MIC (A. B. ATCC 19606 [2]) | MIC (P. A. PAO1 NB52019; [5]) | A. B. ATCC 19606 MIC (A. B. ATCC 19606 [1]; [4]) | E. C. ATCC 25922 MIC (E. C. ATCC 25922; [4]) | P. A. PAO1 NB52019 MIC (P. A. PAO1 NB52019; [4]) | pIC50 (P. aeruginosa LpxC) | MIC (A. B. ATCC 19606 [1]; ATCC19606, 20 h) | MIC (E. C. ATCC 25922) | MIC (P. A. PAO1 NB52019; PAO1, 20 h)
COCC1CC(C#Cc2cc(CC[C@](C)(C(=O)NO)S(C)(=O)=O)no2)C1 (single isomer, unassigned) [Compound 1.15a] | 0.25 µg/mL | > 64 µg/mL | 8 µg/mL | 0.25 µg/mL | 2 µg/mL | – | – | – | – | – | – | –
COCC1CC(C#Cc2cc(CC[C@](C)(C(=O)NO)S(C)(=O)=O)no2)C1 (single isomer, unassigned) [Compound 1.15b] | 0.25 µg/mL | – | – | 0.5 µg/mL | – | >64 µg/mL | 4 µg/mL | 2 µg/mL | – | – | – | –
C[C@@](CCc1cc(C#CC2CC2)on1)(C(=O)NO)S(C)(=O)=O [Compound 1.1, (R)-4-(5-(cyclopropylethynyl)isoxazol-3-yl)-N-hydroxy-2-methyl-2-(methylsulfonyl)butanamide] | ≤0.06 µg/mL | > 64 µg/mL | 2 µg/mL | 0.125 µg/mL | 0.25 µg/mL | – | – | – | 8.52 | – | – | –
C[C@@](CCc1cc(C#CC2CCC2)on1)(C(=O)NO)S(C)(=O)=O [Compound 1.2, (R)-4-(5-(cyclobutylethynyl)isoxazol-3-yl)-N-hydroxy-2-methyl-2-(methylsulfonyl)butanamide] | ≤0.06 µg/mL | > 64 µg/mL | 2 µg/mL | ≤0.06 µg/mL | 0.125 µg/mL | – | – | – | > 9.00 | – | – | –
CC(C)(C)C#Cc1cc(CC[C@](C)(C(=O)NO)S(C)(=O)=O)no1 [Compound 1.3, (R)-4-(5-(3,3-dimethylbut-1-yn-1-yl)isoxazol-3-yl)-N-hydroxy-2-methyl-2-(methylsulfonyl)butanamide] | 2 µg/mL | > 64 µg/mL | 8 µg/mL | 0.25 µg/mL | 0.25 µg/mL | – | – | – | > 9.00 | – | – | –
CC#Cc1cc(CC[C@](C)(C(=O)NO)S(C)(=O)=O)no1 [Compound 1.4, (R)—N-hydroxy-2-methyl-2-(methylsulfonyl)-4-(5-(prop-1-yn-1-yl)isoxazol-3-yl)butanamide] | ≤0.06 µg/mL | > 64 µg/mL | 4 µg/mL | 2 µg/mL | 0.25 µg/mL | – | – | – | 8.70 | – | – | –
CCC#Cc1cc(CC[C@](C)(C(=O)NO)S(C)(=O)=O)no1 [Compound 1.5, (R)-4-(5-(but-1-yn-1-yl)isoxazol-3-yl)-N-hydroxy-2-methyl-2-(methylsulfonyl)butanamide] | ≤0.06 µg/mL | > 64 µg/mL | 4 µg/mL | ≤0.06 µg/mL | 0.25 µg/mL | – | – | – | 9.00 | – | – | –
CC(C)C#Cc1cc(CC[C@](C)(C(=O)NO)S(C)(=O)=O)no1 [Compound 1.6, (R)—N-hydroxy-2-methyl-4-(5-(3-methylbut-1-yn-1-yl)isoxazol-3-yl)-2-(methylsulfonyl)butanamide] | 0.125 µg/mL | > 64 µg/mL | 4 µg/mL | 0.125 µg/mL | 0.5 µg/mL | – | – | – | > 9.00 | – | – | –
CCCC#Cc1cc(CC[C@](C)(C(=O)NO)S(C)(=O)=O)no1 [Compound 1.7, (R)—N-hydroxy-2-methyl-2-(methylsulfonyl)-4-(5-(pent-1-yn-1-yl)isoxazol-3-yl)butanamide] | ≤0.06 µg/mL | > 64 µg/mL | 2 µg/mL | 0.125 µg/mL | 0.25 µg/mL | – | – | – | > 9.00 | – | – | –
CC1(C#Cc2cc(CC[C@](C)(C(=O)NO)S(C)(=O)=O)no2)CC1 [Compound 1.8, (R)—N-hydroxy-2-methyl-4-(5-((1-methylcyclopropyl)ethynyl)isoxazol-3-yl)-2-(methylsulfonyl)butanamide] | 0.25 µg/mL | > 64 µg/mL | 8 µg/mL | ≤0.06 µg/mL | 0.25 µg/mL | – | – | – | > 9.00 | – | – | –
C[C@@](CCc1cc(C#CCCF)on1)(C(=O)NO)S(C)(=O)=O [Compound 1.9] | 0.125 µg/mL | > 64 µg/mL | 32 µg/mL | 1 µg/mL | 1 µg/mL | – | – | – | 8.52 | – | – | –
C[C@@](CCc1cc(C#CC2CC(F)C2)on1)(C(=O)NO)S(C)(=O)=O (stereo partly drawn) [Compound 1.13, (R)-4-(5-((3-fluorocyclobutyl)ethynyl)isoxazol-3-yl)-N-hydroxy-2-methyl-2-(methylsulfonyl)butanamide] | 0.25 µg/mL | > 64 µg/mL | 16 µg/mL | ≤0.06 µg/mL | 0.5 µg/mL | – | – | – | – | – | – | –
C[C@@](CCc1cc(/C=C/C2CC2)on1)(C(=O)NO)S(C)(=O)=O [Compound 4.2, (R,E)-4-(5-(2-cyclopropylvinyl)isoxazol-3-yl)-N-hydroxy-2-methyl-2-(methylsulfonyl)butanamide] | 0.125 µg/mL | > 64 µg/mL | 8 µg/mL | 0.5 µg/mL | 0.25 µg/mL | – | – | – | – | – | – | –
C/C=C(/C)c1cc(CC[C@](C)(C(=O)NO)S(C)(=O)=O)no1 [Compound 4.3-2, (R,Z)-4-(5-(but-2-en-2-yl)isoxazol-3-yl)-N-hydroxy-2-methyl-2-(methylsulfonyl)butanamide] | 0.5 µg/mL | – | – | 8 µg/mL | – | – | – | – | – | > 64 µg/mL | 16 µg/mL | 2 µg/mL
C[C@@](CCc1cc(/C(F)=C\C2CC2)on1)(C(=O)NO)S(C)(=O)=O [Compound 4.5-2, (R,E)-4-(5-(2-cyclopropyl-1-fluorovinyl)isoxazol-3-yl)-N-hydroxy-2-methyl-2-(methylsulfonyl)butanamide] | 2 µg/mL | > 64 µg/mL | 64 µg/mL | 16 µg/mL | 8 µg/mL | – | – | – | – | – | – | –
